Measured values from ChEMBL document CHEMBL5137013 (Eur J Med Chem, 2022).
Activity calls are given as the source filed them. The rule behind the calls is not given here.

Key:
[1] = tested on: MCF7; test: Cytotoxicity against human MCF7 cells assessed as reduction in cell viability measured after 24 hrs by MTT assay; conditions: MCF7, 24 h
[2] = tested on: HT-29; test: Cytotoxicity against human HT-29 cells assessed as reduction in cell viability measured after 24 hrs by MTT assay; format: functional, cell-based; conditions: HT-29, 24 h
[3] = tested on: HeLa; test: Cytotoxicity against human HeLa cells assessed as reduction in cell viability measured after 24 hrs by MTT assay; format: functional, cell-based
[4] = tested on: A549; test: Cytotoxicity against human A549 cells assessed as reduction in cell viability measured after 24 hrs by MTT assay; conditions: A549, 24 h
[5] = tested on: MDA-MB-231; test: Cytotoxicity against human MDA-MB-231 cells assessed as reduction in cell viability measured after 24 hrs by MTT assay; format: functional, cell-based; conditions: MDA-MB-231, 24 h
[6] = tested on: HT-29; test: Antitumor activity against human HT-29 cells xenografted in BALB/c nude mouse assessed as reduction in tumor weight at 10 mg/kg, ip administered as 2 days interval for 3 weeks and measured 3 weeks post-initial dosing relative to control; format: functional; parameters: scale not given: the % may be the effect or the level left
[7] = species: Sus scrofa; test: […] of porcine brain tubulin polymerization at 5 uM measured at 1 min interval for 60 mins by fluorescence assay
[8] = Cytotoxicity against human MCF7/TxR cells assessed as reduction in cell viability measured after 24 hrs by MTT assay; format: functional, cell-based
[9] = Cytotoxicity against human A549/TxR cells assessed as reduction in cell viability measured after 24 hrs by MTT assay; format: functional, cell-based
[10] = Resistance index, ratio of IC50 for human A549/TxR cells to IC50 for human A549 cells; format: functional
[11] = Inhibition of porcine brain tubulin polymerization measured at 1 min interval for 60 mins by fluorescence assay; parameters: species or system Sus scrofa
[12] = Resistance index, ratio of IC50 for human MCF7/TxR cells to IC50 for human MCF7 cells; format: functional
[13] = tested on: HT-29; test: Antitumor activity against human HT-29 cells xenografted in BALB/c nude mouse assessed as reduction in tumor weight at 20 mg/kg, ip administered as 2 days interval for 3 weeks and measured 3 weeks post-initial dosing relative to control; format: functional; parameters: scale not given: the % may be the effect or the level left
[14] = Clearance in Sprague-Dawley rat at 10 mg/kg, iv by HPLC-MS/MS analysis; format: ADME, organism-based; conditions: in vivo
[15] = Tmax in Sprague-Dawley rat at 10 mg/kg, iv by HPLC-MS/MS analysis; format: ADME, organism-based; conditions: in vivo
[16] = Cmax in Sprague-Dawley rat at 10 mg/kg, iv by HPLC-MS/MS analysis; format: ADME, organism-based; parameters: dose 10 mg/kg, route iv; conditions: in vivo
[17] = AUC in Sprague-Dawley rat at 10 mg/kg, iv by HPLC-MS/MS analysis; format: ADME, organism-based; parameters: dose 10 mg/kg, route iv; conditions: in vivo
[18] = Half-life in Sprague-Dawley rat at 10 mg/kg, iv by HPLC-MS/MS analysis; format: ADME, organism-based; conditions: in vivo

| SMILES | IC50 [1] [µM] | IC50 [2] [µM] | IC50 [3] [µM] | IC50 [4] [µM] | IC50 [5] [µM] | other results |
| --- | --- | --- | --- | --- | --- | --- |
| COC(=O)c1cc(OC)c(OC)cc1Nc1cc(Br)c(OC)c(Br)c1 | > 20 | > 20 | > 20 | > 20 | > 20 | – |
| COC(=O)c1cc2c(cc1Nc1cc(F)c(OC)c(F)c1)OCO2 | > 20 | 8.53 | 10.6 | > 20 | > 20 | – |
| COC(=O)c1cc2c(cc1NC(=O)c1cc(OC)c(OC)c(OC)c1)OCCO2 | > 20 | > 20 | > 20 | > 20 | > 20 | – |
| COc1cc(Nc2cc3c(cc2C(=O)O)OCCO3)cc(OC)c1OC | 6.76 | 2.16 | 2.91 | 11.5 | 6.79 | – |
| CC(=O)O[C@H]1C(=O)[C@@]2(C)[C@H]([C@H](OC(=O)c3ccccc3)[C@]3(O)C[C@H](OC(=O)[C@H](O)[C@@H](NC(=O)c4ccccc4)c4ccccc4)C(C)=C1C3(C)C)[C@]1(OC(C)=O)CO[C@@H]1C[C@@H]2O [PACLITAXEL] | – | 0.011 | 0.039 | – | 0.007 | Activity [6]: 77.1%; Activity [7]: Active; IC50 [8]: 8.35 µM; IC50 [9]: 2.92 µM |
| COc1cc(Nc2cc3c(cc2C(=O)NN)OCCO3)cc(OC)c1OC | 0.37 | 0.13 | 0.32 | 0.74 | 0.36 | – |
| COc1cc(C(=O)Nc2cc3c(cc2C(=O)NN)OCCO3)cc(OC)c1OC | > 20 | > 20 | > 20 | > 20 | > 20 | – |
| COc1c(Br)cc(Nc2cc3c(cc2C(=O)O)OCO3)cc1Br | 16 | 3.13 | 6.9 | 15.9 | 5.6 | – |
| COC(=O)c1cc2c(cc1NC(=O)c1cc(F)c(OC)c(F)c1)OCCO2 | > 20 | > 20 | > 20 | > 20 | > 20 | – |
| COC(=O)c1cc2c(cc1Nc1cc(OC)c(OC)c(OC)c1)OCO2 | 0.98 | 0.38 | 0.39 | 2.67 | 0.74 | – |
| COc1c(F)cc(Nc2cc3c(cc2C(N)=O)OCCO3)cc1F | 12.2 | 0.86 | 6.12 | 2.21 | 1.7 | – |
| COC(=O)c1cc2c(cc1Nc1ccc(OC)c(OC)c1)OCCO2 | 11.3 | 0.55 | 2.11 | 1 | 5.46 | – |
| COc1cc(C(=O)Nc2cc3c(cc2C(=O)O)OCCO3)cc(OC)c1OC | > 20 | > 20 | > 20 | > 20 | > 20 | – |
| COc1cc(Nc2cc3c(cc2C(=O)O)OCO3)cc(OC)c1OC | 15.1 | 1.41 | 5.18 | 5.42 | 2.3 | – |
| COC(=O)c1cc2c(cc1Nc1ccc3c(c1)OCCO3)OCCO2 | 8.6 | 4.64 | 12.8 | 6.36 | 16.6 | – |
| COC(=O)c1cc2c(cc1Nc1cc(F)c(OC)c(F)c1)OCCO2 | > 20 | 4.47 | 5.22 | 1.55 | 4.1 | – |
| COC(=O)c1cc(OC)c(OC)cc1Nc1cc(OC)c(OC)c(OC)c1 | > 20 | > 20 | > 20 | > 20 | > 20 | – |

| SMILES | IC50 [1] [µM] | IC50 [2] [µM] | IC50 [3] [µM] | IC50 [4] [µM] | IC50 [5] [µM] | other results |
| --- | --- | --- | --- | --- | --- | --- |
| COc1c(Br)cc(Nc2cc3c(cc2C(=O)NN)OCCO3)cc1Br | 0.44 | 0.23 | 0.24 | 1.14 | 0.47 | – |
| COc1cc2c(c(OC)c1OC)-c1ccc(OC)c(=O)cc1[C@@H](NC(C)=O)CC2 [COLCHICINE] | – | 0.25 | 0.008 | 0.031 | 0.097 | – |
| COc1cc(Nc2cc3c(cc2C(=O)NN)OCO3)cc(OC)c1OC | 1.97 | 0.53 | 1.19 | 1.4 | 1.36 | – |
| NNC(=O)c1cc2c(cc1Nc1ccc3c(c1)OCO3)OCCO2 | > 20 | 1.02 | 3.54 | > 20 | > 20 | – |
| COc1c(F)cc(Nc2cc3c(cc2C(=O)NN)OCO3)cc1F | > 20 | 3.65 | 5.88 | > 20 | > 20 | – |
| COC(=O)c1cc2c(cc1Nc1cc(Br)c(OC)c(Br)c1)OCCO2 | 3.37 | 1.47 | 2.49 | 10.1 | 6.46 | – |
| COc1c(F)cc(Nc2cc3c(cc2C(=O)NN)OCCO3)cc1F | 15.4 | 1.31 | 2.56 | 1.2 | 5.92 | – |
| COC(=O)c1cc2c(cc1Nc1cc(Br)c(OC)c(Br)c1)OCO2 | 6.46 | 2.02 | 3.4 | 2.64 | 11.7 | – |
| COc1c(F)cc(C(=O)Nc2cc3c(cc2C(=O)NN)OCCO3)cc1F | > 20 | > 20 | > 20 | > 20 | > 20 | – |
| COc1ccc(Nc2cc3c(cc2C(=O)NN)OCCO3)cc1 | > 20 | > 20 | > 20 | > 20 | > 20 | – |
| COc1ccc(/C=C\c2cc(OC)c(OC)c(OC)c2)cc1O [COMBRETASTATIN A4] | 0.009 | 0.43 | 0.007 | 0.046 | 0.013 | Ratio IC50 [10]: 2.1; IC50 [11]: 1.21 µM; Ratio IC50 [12]: 1.8; IC50 [8]: 0.017 µM; Activity [13]: 17.4%; IC50 [9]: 0.096 µM |
| COC(=O)c1cc2c(cc1Nc1ccc(OC)cc1)OCCO2 | > 20 | > 20 | > 20 | > 20 | > 20 | – |
| COc1ccc(Nc2cc3c(cc2C(N)=O)OCCO3)cc1OC | 13.1 | 0.85 | 5.29 | 0.91 | > 20 | – |
| COC(=O)c1cc2c(cc1NC(=O)c1cc(Br)c(OC)c(Br)c1)OCCO2 | > 20 | > 20 | > 20 | > 20 | > 20 | – |
| COc1cc([C@@H]2c3cc4c(cc3[C@H](O)[C@H]3COC(=O)[C@H]23)OCO4)cc(OC)c1OC [PODOFILOX] | 0.039 | 0.023 | 0.044 | 0.059 | 0.017 | Ratio IC50 [10]: 1.2; CL [14]: 56.5 mL/min/kg; Tmax [15]: 6 min; Cmax [16]: 3530 ng/mL; AUC [17]: 2950 µg/L.hr; Ratio IC50 [12]: 1.1; IC50 [8]: 0.043 µM; t1/2 [18]: 12.6 min; IC50 [9]: 0.073 µM |
| COC(=O)c1cc2c(cc1Nc1ccc3c(c1)OCO3)OCCO2 | 11.2 | 4.61 | 5.55 | > 20 | 3.13 | – |
